For experiment [1], the system named is microorganisms. Nature of the experiment: Peptide activities: targeting/binding, antimicrobial, growth or phenotype altering (Tables 7, 8). The experiment is classed as cell-based. Particulars: peptides having multiple activities. An excerpt: In certain embodiments, peptides described herein can have multiple activities. Thus for example, a peptide can have both binding/targeting activity and antimicrobial activity. Such peptides can be used, e.g., in a chimeric construct, for any or all of these properties. Thus, for example, a peptide designated “B” in Table 8 can be used as a targeting peptide. If it is also designated G or M it can also be used for antimicrobial activity.
Table 8. Peptides Having Multiple Activities. B: Targeting/Binding Activity; M: Antimicrobial Activity; G: GROWTH or Phenotype Altering.

The subject of experiment [2] is microorganisms. Nature of the experiment: Morphology, biofilm and growth disrupting peptides (Table 5). The experiment is classed as cell-based. Further details: key: A: Peptide aggregates; B: Less hyphal formation; Clumps; Diffuse clumps and small polyps; F: Diffuse growth; H: Thin; I: Growth inhibition; Microcolony formation; Rippled; Small polyps; Thick; W: Halo formation on top, microlonies on bottom. An excerpt:
In certain embodiments peptides that induce alterations in phenotype or other biological activities can also be used as antimicrobial effector moieties.

For experiment [3], the system named is microorganisms. Nature of the experiment: Targeting peptide binding to target microorganisms (Tables 3, 10, 12). The following applies: microorganism(s) the targeting peptide binds; binding in aqueous buffers varied with peptide solubility, preferably 1x PBS.

Regarding ALCSVIKAIELGIINVHLQ [PF-366], the Activities result in the experiment on microorganisms [1] is recorded as “G B”. In the experiment on microorganisms [2], the “Organism, effect: C. jejuni” value was “C. jejuni (D)” and the “Organism, effect: E. coli” value is reported as “E. coli (C)”. In addition, the “Organism, effect: E. faecalis” value with microorganisms [2] (E. faecalis) was “E. faecalis (C)”. Besides, the “Organism, effect: MRSA” value in the experiment with microorganisms [2] (MRSA) is given as “MRSA (D)”. In addition, the “Organism, effect: P. aeruginosa” value in the experiment on microorganisms [2] (P. aeruginosa) is reported as “P. aeruginosa (A)”. The “Organism, effect: S. epidermidis” value in the experiment with microorganisms [2] (S. epidermidis) is recorded as “S. epidermidis (R)”. The “Organism, effect: S. pneumoniae” value with microorganisms [2] (S. pneumoniae) was “S. pneumoniae (C)”.
For the substance “EILNNNQVIKELTMKYKTQFESNLGGWTARARR [PF-580]”, the Activities result in the experiment on microorganisms [1] is “G B”. In addition, the “Organism, effect” value with microorganisms [2] (M. luteus) is “M. luteus (C)”; in the experiment on microorganisms [2] (MRSA) it was “MRSA (M)”; in the experiment on microorganisms [2] (S. epidermidis), “S. epidermidis (M)”; in the experiment with microorganisms [2] (S. pneumoniae) it was “S. pneumoniae (C)”.
Take MGIIAGIIKVIKSLIEQFTGK [PF-007]: the Activities result with microorganisms [1] was “G B”. Moreover, in the experiment with microorganisms [2], the “Organism, effect: E. coli” value is recorded as “E. coli (A)”. Also, the “Organism, effect: E. faecalis” value in the experiment on microorganisms [2] (E. faecalis) was “E. faecalis (A)”. Besides, the “Organism, effect: M. luteus” value in the experiment on microorganisms [2] (M. luteus) is “M. luteus (A)”. Besides, the “Organism, effect: MRSA” value in the experiment on microorganisms [2] (MRSA) is “MRSA (R)”. In addition, the “Organism, effect: S. epidermidis” value in the experiment on microorganisms [2] (S. epidermidis) is given as “S. epidermidis (A)”.
With MIHLTKQNTMEALHFIKQFYDMFFILNFNV [PF-040], in the experiment with microorganisms [1], the Activities result is recorded as “G B”. The “Organism, effect: B. subtilis” value in the experiment with microorganisms [2] (B. subtilis) was “B. subtilis (D)”. In addition, the “Organism, effect: C. jeikeium” value with microorganisms [2] (C. jeikeium) was “C. jeikeium (D)”. Further, in the experiment with microorganisms [2], the “Organism, effect: C. jejuni” value is “C. jejuni (D)” and the “Organism, effect: E. coli” value is listed as “E. coli (C)”. Moreover, the “Organism, effect: M. luteus” value in the experiment with microorganisms [2] (M. luteus) is given as “M. luteus (D)”. For the same substance, in the experiment with microorganisms [2] (MRSA), the “Organism, effect: MRSA” value is “MRSA (D)”. Moreover, the “Organism, effect: P. mirabilis” value in the experiment on microorganisms [2] (P. mirabilis) is recorded as “P. mirabilis (C)”. Further, the “Organism, effect: S. epidermidis” value with microorganisms [2] (S. epidermidis) is given as “S. epidermidis (D)”. In the experiment on microorganisms [2] (S. mutans, class symbol), the “Organism, effect: S. mutans” value is on record as “S. mutans (F)”. In addition, the “Organism, effect: S. pneumoniae” value in the experiment on microorganisms [2] (S. pneumoniae) is given as “S. pneumoniae (D)”.
For “PF-667 (chain 1 PAHQRLRIDQRLVADRDMVQDYES; chain 2 PAHQRLRIDQRLVADRDMVQDYES; Peptide with targeting and/or antimicrobial activity)”, in the experiment with microorganisms [3], the “Target(s)” value is recorded as “Mycobacteria spp”. The “Organism, effect” value was “E. faecalis (R)” in the experiment with microorganisms [2] (E. faecalis), “MRSA (R)” in the experiment with microorganisms [2] (MRSA), “S. epidermidis (R)” in the experiment on microorganisms [2] (S. epidermidis) and “S. pneumoniae (R)” in the experiment on microorganisms [2] (S. pneumoniae).
With “PF-668 (chain 1 TNAESMALAFRGRVHMSVNIAGLT; chain 2 TNAESMALAFRGRVHMSVNIAGLT; Peptide with targeting and/or antimicrobial activity)”, in the experiment with microorganisms [3], the “Target(s)” value is recorded as “Mycobacteria spp”. Further, the “Organism, effect” value is “B. subtilis (A)” in the experiment on microorganisms [2] (B. subtilis); “C. albicans (A)” with microorganisms [2] (C. albicans); “C. jeikeium (D)” with microorganisms [2] (C. jeikeium); “E. faecalis (D)” in the experiment with microorganisms [2] (E. faecalis); “MRSA (R)” in the experiment with microorganisms [2] (MRSA); “S. epidermidis (M)” in the experiment on microorganisms [2] (S. epidermidis). For the same substance, the “Organism, effect” value with microorganisms [2] (S. pneumoniae) is recorded as “S. pneumoniae (M)”.
For “PF-675 (EIIPISPTRRCEMHTMSSAEYRGL; Peptide with targeting and/or antimicrobial activity)”, the “Target(s)” value with microorganisms [3] is on record as “Mycobacteria spp”. Also, the “Organism, effect” value is recorded as “E. faecalis (R)” in the experiment with microorganisms [2] (E. faecalis) and “S. pneumoniae (C)” in the experiment with microorganisms [2] (S. pneumoniae).
For “PF-677 (TCRGAGMH; Peptide with targeting and/or antimicrobial activity)”, in the experiment with microorganisms [3], the “Target(s)” value is “Mycobacteria spp”. For the same substance, the “Organism, effect” value in the experiment with microorganisms [2] (E. faecalis) is recorded as “E. faecalis (R)”; in the experiment on microorganisms [2] (MRSA), “MRSA (D)”; with microorganisms [2] (S. epidermidis), “S. epidermidis (R)”; in the experiment with microorganisms [2] (S. pneumoniae), “S. pneumoniae (D)”.
For “PF-680 (ADPHPTTGI; Peptide with targeting and/or antimicrobial activity)”, the “Target(s)” value in the experiment with microorganisms [3] was “Mycobacteria spp”. In addition, the “Organism, effect” value in the experiment with microorganisms [2] (MRSA) was “MRSA (R)”.
With “PF-682 (RRGKSEQGLSRR; Peptide with targeting and/or antimicrobial activity)”, in the experiment on microorganisms [3], the “Target(s)” value is “Mycobacteria spp”. The “Organism, effect” value with microorganisms [2] (S. pneumoniae) is “S. pneumoniae (A)”.
With “PF-683 (LWPVA; Peptide with targeting and/or antimicrobial activity)”, the “Target(s)” value with microorganisms [3] is on record as “Mycobacteria spp”. For the same substance, the “Organism, effect” value in the experiment with microorganisms [2] (MRSA) is on record as “MRSA (R)”; with microorganisms [2] (S. epidermidis), “S. epidermidis (R)”; with microorganisms [2] (S. pneumoniae) it was “S. pneumoniae (H)”.
In the case of “PF-684 (RKLSLASGFALWRRSLV; Peptide with targeting and/or antimicrobial activity)”, the “Target(s)” value in the experiment on microorganisms [3] is reported as “Mycobacteria spp”. The entries for the “Organism, effect” value in the experiment with microorganisms [2] (C. albicans), in the experiment with microorganisms [2] (E. faecalis) and with microorganisms [2] (S. pneumoniae) were “C. albicans (B)”, “E. faecalis (A)” and “S. pneumoniae (C)”, respectively.
On to “PF-685 (PTLWLACL; Peptide with targeting and/or antimicrobial activity)”, for which the “Target(s)” value with microorganisms [3] is reported as “Mycobacteria spp”. The “Organism, effect” value with microorganisms [2] (C. jeikeium) is given as “C. jeikeium (R)”; with microorganisms [2] (E. faecalis), “E. faecalis (R)”; with microorganisms [2] (MRSA), “MRSA (M)”; in the experiment on microorganisms [2] (S. epidermidis) it was “S. epidermidis (M)”; with microorganisms [2] (S. pneumoniae), “S. pneumoniae (M)”.
As for “PF-687 (AKRVLSLAVAPHRRQPVQGT; Peptide with targeting and/or antimicrobial activity)”, the “Target(s)” value with microorganisms [3] was “Mycobacteria spp”. For the same substance, in the experiment with microorganisms [2] (S. pneumoniae), the “Organism, effect” value was “S. pneumoniae (A)”.
The corresponding values for “PF-688 (ARNHAVIPAG; Peptide with targeting and/or antimicrobial activity)” are “Mycobacteria spp” and “S. pneumoniae (A)”.
With “PF-690 (MIPLAGDPVSSHRTVEFGVLGTYLVSGGSL; Peptide with targeting and/or antimicrobial activity)”, in the experiment with microorganisms [3], the “Target(s)” value is “Mycobacteria spp”. The “Organism, effect” value is recorded as “E. faecalis (R)” in the experiment on microorganisms [2] (E. faecalis), “MRSA (R)” in the experiment on microorganisms [2] (MRSA), “S. epidermidis (R)” with microorganisms [2] (S. epidermidis) and “S. pneumoniae (M)” with microorganisms [2] (S. pneumoniae).
Consider “PF-691 (HRTVEFGVLGTYLVSGGSL; Peptide with targeting and/or antimicrobial activity)”, for which, in the experiment with microorganisms [3], the “Target(s)” value is listed as “Mycobacteria spp”. The “Organism, effect” value with microorganisms [2] (S. pneumoniae) is reported as “S. pneumoniae (R)”.
Take “PF-692 (GVAREDPLEPDPLAPIIDDSR; Peptide with targeting and/or antimicrobial activity)”: the “Target(s)” value with microorganisms [3] is on record as “Mycobacteria spp”. Besides, in the experiment on microorganisms [2] (MRSA), the “Organism, effect” value was “MRSA (R)”.
As for “PF-693 (PDPAR; Peptide with targeting and/or antimicrobial activity)”, the “Target(s)” value in the experiment on microorganisms [3] is reported as “Mycobacteria spp”. Further, in the experiment with microorganisms [2] (S. pneumoniae), the “Organism, effect” value is reported as “S. pneumoniae (A)”.
On to “PF-694 (DLIRPLYSMSAPSVA; Peptide with targeting and/or antimicrobial activity)”, for which the “Target(s)” value in the experiment on microorganisms [3] is “Mycobacteria spp”. Moreover, the “Organism, effect” value in the experiment with microorganisms [2] (MRSA) was “MRSA (R)”; in the experiment with microorganisms [2] (S. pneumoniae) it was “S. pneumoniae (A)”.
With “PF-695 (ALSVMLGNIPLVVPNANQL; Peptide with targeting and/or antimicrobial activity)”, the “Target(s)” value in the experiment on microorganisms [3] is recorded as “Mycobacteria spp”. Moreover, the “Organism, effect” value in the experiment with microorganisms [2] (E. faecalis) is given as “E. faecalis (R)”; with microorganisms [2] (MRSA), “MRSA (R)”; in the experiment with microorganisms [2] (S. pneumoniae), “S. pneumoniae (C)”.
In the case of “PF-696 (IRSGISAAYARPLR; Peptide with targeting and/or antimicrobial activity)”, in the experiment with microorganisms [3], the “Target(s)” value is “Mycobacteria spp”. The “Organism, effect” value with microorganisms [2] (S. pneumoniae) was “S. pneumoniae (H)”.
Regarding “PF-697 (RADARAK; Peptide with targeting and/or antimicrobial activity)”, the “Target(s)” value in the experiment on microorganisms [3] is recorded as “Mycobacteria spp”. The “Organism, effect” value is “C. albicans (H)” in the experiment with microorganisms [2] (C. albicans) and “S. pneumoniae (H)” in the experiment on microorganisms [2] (S. pneumoniae).
Regarding “PF-698 (SSGRAGVKCRRPTGR; Peptide with targeting and/or antimicrobial activity)”, the “Target(s)” value in the experiment on microorganisms [3] is reported as “Mycobacteria spp”. The results for the “Organism, effect” value in the experiment on microorganisms [2] (C. albicans), with microorganisms [2] (E. faecalis) and with microorganisms [2] (S. pneumoniae) were “C. albicans (H)”, “E. faecalis (A)” and “S. pneumoniae (A)”, respectively.
As to “PF-699 (GRAGVKCRRPTGR; Peptide with targeting and/or antimicrobial activity)”, the “Target(s)” value in the experiment on microorganisms [3] is listed as “Mycobacteria spp”. Also, the “Organism, effect” value in the experiment with microorganisms [2] (S. pneumoniae) is reported as “S. pneumoniae (A)”.
On the same counts, the results for “PF-700 (LNWPFTGR; Peptide with targeting and/or antimicrobial activity)” are “Mycobacteria spp” and “S. pneumoniae (C)”.
On the same counts, the results for “PF-702 (LSGRLAGRR; Peptide with targeting and/or antimicrobial activity)” are “Mycobacteria spp” and “S. pneumoniae (H)”.
The corresponding values for “PF-704 (APAARAAL; Peptide with targeting and/or antimicrobial activity)” are “Mycobacteria spp” and “S. pneumoniae (C)”.

For the origin of these results see US20110039763A1, “TARGETED ANTIMICROBIAL MOIETIES” (C3 JIAN, INC., priority 2009, published 2011).
